According to paper PMC11079024, “Identification of a family of species-selective complex I inhibitors as potential anthelmintics” (Nature Communications, 2024):
Values joined by “and” are separate entries in the source; they are usually repeats but may differ in a detail not shown here. Identical values can stand only once. Like-named read-outs stand apart in the source and are kept apart here.

Target: C. elegans (N2) complex I (NADH:ubiquinone oxidoreductase) (Caenorhabditis elegans, UniProt P24887+Q93873+Q94360)
Test: biochemical
Assay type: biochemical
Summary of the method: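 Mitochondria, 0.2 mg/mL protein, freeze-thawed three times, assayed in 25 mM KPi pH 7.5 with BSA, 80 μM NADH, 60 μM decylubiquinone, 160 μM DCIP, antimycin A and KCN. Rate from initial linear slope of A600 over 15 min. % of solvent control.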

[1] = C. elegans, Mean of replicates, read-out: Complex I activity, dose-response data
[2] = C. elegans, individual replicates (Rep), read-out: Complex I activity, dose-response data

C. elegans (N2) complex I (NADH:ubiquinone oxidoreductase), sequence (Q94360 17-199): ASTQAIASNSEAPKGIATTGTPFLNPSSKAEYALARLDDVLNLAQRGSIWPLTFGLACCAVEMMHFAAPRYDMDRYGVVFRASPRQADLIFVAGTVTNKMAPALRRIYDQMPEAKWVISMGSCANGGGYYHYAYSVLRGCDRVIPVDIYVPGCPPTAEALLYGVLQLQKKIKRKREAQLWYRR
C. elegans (N2) complex I (NADH:ubiquinone oxidoreductase), sequence (P24887 whole entry): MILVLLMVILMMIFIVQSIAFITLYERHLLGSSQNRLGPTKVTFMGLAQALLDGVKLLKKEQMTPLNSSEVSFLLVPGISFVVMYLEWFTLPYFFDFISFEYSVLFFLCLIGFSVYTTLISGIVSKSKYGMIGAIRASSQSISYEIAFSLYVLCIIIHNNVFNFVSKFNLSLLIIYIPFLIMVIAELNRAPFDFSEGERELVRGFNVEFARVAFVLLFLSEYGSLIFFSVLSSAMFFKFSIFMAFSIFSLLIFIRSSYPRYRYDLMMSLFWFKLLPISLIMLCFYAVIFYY
C. elegans (N2) complex I (NADH:ubiquinone oxidoreductase), sequence (Q93873 31-482): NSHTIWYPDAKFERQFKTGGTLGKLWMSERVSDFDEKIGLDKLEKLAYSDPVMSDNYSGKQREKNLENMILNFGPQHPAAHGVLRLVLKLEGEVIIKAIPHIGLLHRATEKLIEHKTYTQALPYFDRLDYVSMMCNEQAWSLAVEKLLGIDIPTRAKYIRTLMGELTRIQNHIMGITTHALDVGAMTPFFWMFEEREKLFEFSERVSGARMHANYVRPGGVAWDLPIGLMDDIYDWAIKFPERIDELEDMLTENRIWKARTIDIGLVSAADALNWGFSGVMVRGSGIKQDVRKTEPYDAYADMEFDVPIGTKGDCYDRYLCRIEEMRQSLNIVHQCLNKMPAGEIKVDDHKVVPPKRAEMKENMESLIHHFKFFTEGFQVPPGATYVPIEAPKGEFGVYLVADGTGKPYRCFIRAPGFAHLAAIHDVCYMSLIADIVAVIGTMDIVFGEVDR

COc1cc2c(cc1OC)C(/C=C/c1ccc(N(C)C)cc1)=NCC2 [NPD6303]
remaining activity at 3 µM (3 µM, wild-type C. elegans mitochondria, single replicate, read-out: percent (%) in vitro complex I activity relative to solvent control): 82.5% | remaining activity at 15 µM (15 µM, wild-type C. elegans mitochondria, mean of replicates, read-out: percent (%) in vitro complex I activity relative to solvent control): 47.6% | remaining activity at 37.5 µM (37.5 µM, wild-type C. elegans mitochondria, mean of replicates, read-out: percent (%) in vitro complex I activity relative to solvent control): 15% | remaining activity at 75 µM (75 µM, wild-type C. elegans mitochondria, mean of replicates, read-out: percent (%) in vitro complex I activity relative to solvent control): 9.53% | activity at 100 µM (100 µM compound, relative to solvent control, mean (SEM), read-out: % Activity Complex I): 12.7% | Percent in vitro activity, Complex I (single replicate Rep1-Rep4) (100 μM of NPD compound, C. elegans mitochondria, individual biological replicates, 100 µM): 10.460% and 12.057% and 12.075% | activity at 100 µM (100 μM of NPD compound, C. elegans mitochondria, individual biological replicates, read-out: Percent in vitro activity, Complex I (single replicate Rep1-Rep4)): 16.4% | activity at 100 µM (100 μM of NPD compound, C. elegans mitochondria, mean of four biological replicates, read-out: Percent in vitro activity, Complex I (Mean)): 12.7% | activity at 0.0001 µM (C. elegans, dose 0.0001 µM, Mean of replicates, read-out: Complex I activity, dose-response data): 98.7% | Complex I activity, dose-response data (C. elegans, dose 0.0001 µM, individual replicates (Rep)): 97.469 and 99.188 | activity at 0.0001 µM (C. elegans, dose 0.0001 µM, individual replicates (Rep), read-out: Complex I activity, dose-response data): 101% | activity at 0.0005 µM [1]: 100% | activity at 0.0005 µM [2]: 100% | activity at 0.001 µM (C. elegans, dose 0.001 µM, Mean of replicates, read-out: Complex I activity, dose-response data): 98.7% | Complex I activity, dose-response data (C. elegans, dose 0.001 µM, individual replicates (Rep)): 94.995 and 103.570 | activity at 0.001 µM (C. elegans, dose 0.001 µM, individual replicates (Rep), read-out: Complex I activity, dose-response data): 101% | activity at 0.0025 µM (C. elegans, dose 0.0025 µM, Mean of replicates, read-out: Complex I activity, dose-response data): 103% | Complex I activity, dose-response data (C. elegans, dose 0.0025 µM, individual replicates (Rep)): 97.419 and 110.831 | activity at 0.0025 µM (C. elegans, dose 0.0025 µM, individual replicates (Rep), read-out: Complex I activity, dose-response data): 106% | activity at 0.005 µM (C. elegans, dose 0.005 µM, Mean of replicates, read-out: Complex I activity, dose-response data): 99.6% | Complex I activity, dose-response data (C. elegans, dose 0.005 µM, individual replicates (Rep)): 94.468 and 104.617 | activity at 0.005 µM (C. elegans, dose 0.005 µM, individual replicates (Rep), read-out: Complex I activity, dose-response data): 105% | activity at 0.013 µM (C. elegans, dose 0.013 µM, Mean of replicates, read-out: Complex I activity, dose-response data): 97.2% | Complex I activity, dose-response data (C. elegans, dose 0.013 µM, individual replicates (Rep)): 91.183 and 107.524 | activity at 0.013 µM (C. elegans, dose 0.013 µM, individual replicates (Rep), read-out: Complex I activity, dose-response data): 98.9% | activity at 0.025 µM (C. elegans, dose 0.025 µM, Mean of replicates, read-out: Complex I activity, dose-response data): 97.1% | Complex I activity, dose-response data (C. elegans, dose 0.025 µM, individual replicates (Rep)): 90.226 and 107.714 | activity at 0.025 µM (C. elegans, dose 0.025 µM, individual replicates (Rep), read-out: Complex I activity, dose-response data): 100% | activity at 0.063 µM (C. elegans, dose 0.063 µM, Mean of replicates, read-out: Complex I activity, dose-response data): 95.9% | Complex I activity, dose-response data (C. elegans, dose 0.063 µM, individual replicates (Rep)): 89.273 and 101.913 | activity at 0.063 µM (C. elegans, dose 0.063 µM, individual replicates (Rep), read-out: Complex I activity, dose-response data): 103% | activity at 0.125 µM (C. elegans, dose 0.125 µM, Mean of replicates, read-out: Complex I activity, dose-response data): 93.1% | Complex I activity, dose-response data (C. elegans, dose 0.125 µM, individual replicates (Rep)): 87.998 and 93.858 | activity at 0.125 µM (C. elegans, dose 0.125 µM, individual replicates (Rep), read-out: Complex I activity, dose-response data): 103% | activity at 0.313 µM (C. elegans, dose 0.313 µM, Mean of replicates, read-out: Complex I activity, dose-response data): 88% | Complex I activity, dose-response data (C. elegans, dose 0.313 µM, individual replicates (Rep)): 86.077 and 96.329 | activity at 0.313 µM (C. elegans, dose 0.313 µM, individual replicates (Rep), read-out: Complex I activity, dose-response data): 83.6% | activity at 0.625 µM (C. elegans, dose 0.625 µM, Mean of replicates, read-out: Complex I activity, dose-response data): 108% | Complex I activity, dose-response data (C. elegans, dose 0.625 µM, individual replicates (Rep)): 108.371 and 107.823 | activity at 0.625 µM (C. elegans, dose 0.625 µM, individual replicates (Rep), read-out: Complex I activity, dose-response data): 106% | activity at 1.5 µM [1]: 100% | activity at 1.5 µM [2]: 100% | activity at 3 µM (C. elegans, dose 3 µM, Mean of replicates, read-out: Complex I activity, dose-response data): 89.5% | Complex I activity, dose-response data (C. elegans, dose 3 µM, individual replicates (Rep)): 88.910 and 97.542 | activity at 3 µM (C. elegans, dose 3 µM, individual replicates (Rep), read-out: Complex I activity, dose-response data): 82.5% | activity at 15 µM (C. elegans, dose 15 µM, Mean of replicates, read-out: Complex I activity, dose-response data): 47.6% | Complex I activity, dose-response data (C. elegans, dose 15 µM, individual replicates (Rep)): 33.770 and 49.973 and 56.558 | activity at 37.5 µM (C. elegans, dose 37.5 µM, Mean of replicates, read-out: Complex I activity, dose-response data): 15% | Complex I activity, dose-response data (C. elegans, dose 37.5 µM, individual replicates (Rep)): 10.655 and 12.339 and 24.559 | activity at 75 µM (C. elegans, dose 75 µM, Mean of replicates, read-out: Complex I activity, dose-response data): 9.53% | Complex I activity, dose-response data (C. elegans, dose 75 µM, individual replicates (Rep)): 11.807 and 4.396 and 17.534 | IC50 (wild-type (N2) mitochondria, read-out: C. elegans Complex I IC50): 11.9 µM and 11 µM
